Measurements published in US8883782B2, “Spiro-tetracyclic ring compounds as beta-secretase modulators and methods of use” (Amgen Inc., priority 2010, dated 2014).
Read-outs that look alike come from different tables or passages of the source.

Columns and labels:
[1] = molecular target: Beta Secretase enzyme (BACE) (Homo sapiens, UniProt P56817); test: In vitro enzymatic BACE FRET (fluorescence resonance energy transfer) assay; assay type: biochemical; conditions: average IC50, enzyme assay; read-out: BACE 1 FRET assay
Beta Secretase enzyme (BACE), sequence (P56817 46-501, species assumed): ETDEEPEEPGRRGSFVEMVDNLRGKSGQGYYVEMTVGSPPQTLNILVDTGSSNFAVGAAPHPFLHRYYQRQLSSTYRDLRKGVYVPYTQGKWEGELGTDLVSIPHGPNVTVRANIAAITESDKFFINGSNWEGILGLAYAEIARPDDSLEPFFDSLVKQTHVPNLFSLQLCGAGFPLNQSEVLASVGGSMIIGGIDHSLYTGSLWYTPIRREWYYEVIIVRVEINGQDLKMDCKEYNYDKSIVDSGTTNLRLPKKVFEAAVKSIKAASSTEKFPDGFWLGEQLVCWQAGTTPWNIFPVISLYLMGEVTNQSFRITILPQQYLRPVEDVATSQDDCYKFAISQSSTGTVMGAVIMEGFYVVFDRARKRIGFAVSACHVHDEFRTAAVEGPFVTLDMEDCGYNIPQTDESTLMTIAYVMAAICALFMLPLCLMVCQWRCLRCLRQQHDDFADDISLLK
Method: In Vitro Enzymatic Bace Fret (Fluorescence Resonance Energy Transfer) Assay (Enzyme Assay Data in the Example Table I)
The assay buffer used in this screen is 0.05 M acetate, pH 4.2, 10% DMSO final, 100 uM genapol (which is a nonionic detergent, below its Critical Micelle Concentration). […] This assay is effectively started by the addition of FRET substrate (50 nM) and the combination is incubated for one hour. The FRET assay is terminated with by addition of Tris buffer, which raises the pH to neutrality, and the fluorescence is determined. The FRET substrate is a peptide with commercially available fluorophore and quencher, on opposite sides of the BACE cleavage site.

[2] = system: Aβ40 in conditioned medium of cells stably expressing Amyloid Precursor Protein (APP); test: In vitro BACE cell-based assay (Aβ40 in conditioned medium, sandwich ELISA)
Method: In Vitro BACE Cell-Based Assay
The cell-based assay measures inhibition or reduction of Aβ40 in conditioned medium of test compound treated cells expressing amyloid precursor protein.
Cells stably expressing Amyloid Precursor Protein (APP) were plated at a density of 40K cells/well in 96 well plates (Costar). The cells were cultivated for 24 hours at 37° C. and 5% CO2 in DMEM supplemented with 10% FBS. The test compounds were then added to cells in 10-point dose response concentrations with the starting concentration being either 100 μM or 10 μM. The compounds were diluted from stock solutions in DMSO and the final DMSO concentration of the test compounds on cells was 0.1%. […] The IC50 of the compound was calculated from the percent of control or percent inhibition of Aβ 40 as a function of the concentration of the test compound.
The sandwich ELISA to detect Aβ 40 was performed in 96 well microtiter plates, which were pre-treated with goat anti-rabbit IgG (Pierce). The capture and detecting antibody pair that were used to detect Aβ 40 from cell supernatants were affinity purified pAb40 (Biosource) and biotinylated 6E10 (Signet Labs Inc.), respectively. The optimal concentration for the pAb40 antibody was 3 μg/ml in Superblock/TBS (Pierce) that was supplemented with 0.05% Tween 20 (Sigma).
Cellular supernatants were incubated with the capture antibody for 3 h at 4° C., followed by 3 wash steps in TBS-tween (0.05%). The detecting antibody incubation was for 2 h at 4° C., again followed by the wash steps as described previously. The final readout of the ELISA is Time-Resolved Fluorescence (counts per minute) using Delfia reagents Streptavidin-Europium and Enhancement solutions (Perkin Elmer) and the Victor 2 multilabel counter (Perkin Elmer).

[3] = Homo sapiens, HEK293, average IC50, HEK cells, read-out: HEK cell assay
[4] = average IC50, HEK cells, read-out: HEK cell assay
[5] = Homo sapiens, HEK293, average IC50, read-out: HEK cell assay
[6] = average IC50, read-out: HEK cell assay
[7] = Homo sapiens, HEK293, read-out: HEK cell assay (uM)

Row | Compound | IC50 [1] | IC50 [2, 5] | further results
1 | NC1=N[C@@]2(CO1)c1cc(-c3cnccc3F)c(F)cc1Oc1ncc(C3=CCOCC3)cc12 [Example 646, (5S)-3-(3,6-dihydro-2H-pyran-4-yl)-8-fluoro-7-(4-fluoro-3-pyridinyl)spiro[chromeno[2,3-b]pyridine-5,4′-[1,3]oxazol]-2′-amine] | 2.2 nM |  | IC50 [2, 3]: 0.016 µM
2 | CC1(C)C[C@@H](c2cnc3c(c2)[C@]2(COC(N)=N2)c2cc(-c4cncc(Cl)c4)ccc2O3)CCO1 [Example 476, (5S)-7-(5-chloro-3-pyridinyl)-3-((4S)-2,2-dimethyltetrahydro-2H-pyran-4-yl)spiro[chromeno[2,3-b]pyridine-5,4′-[1,3]oxazol]-2′-amine] | 1.3 nM |  | IC50 [2, 4]: 0.0049 µM
3 | NC1=N[C@@]2(CS1)c1cc(-c3cccnc3F)ccc1Oc1ncc(-c3ncccn3)cc12 [Example 728, (5S)-7-(2-fluoro-3-pyridinyl)-3-(2-pyrimidinyl)spiro[chromeno[2,3-b]pyridine-5,4′-[1,3]thiazol]-2′-amine] | 3.5 nM | 0.08 µM | 
4 | NC1=N[C@@]2(CS1)c1cc(-c3cncc(F)c3)ccc1Oc1cnc(C3=CCOCC3)cc12 [Example 619, (5S)-3-(3,6-dihydro-2H-pyran-4-yl)-7-(5-fluoro-3-pyridinyl)spiro[chromeno[2,3-c]pyridine-5,4′-[1,3]thiazol]-2′-amine] | 0.4 nM |  | IC50 [2, 4]: 0.008 µM
5 | NC1=N[C@@]2(CS1)c1cc(Br)ccc1Oc1cnc(Cl)cc12 [Example 994, (5S)-7-bromo-3-chlorospiro[chromeno[2,3-c]pyridine-5,4′-[1,3]thiazol]-2′-amine] |  | ≥ 10 µM | 
6 | (4R)-4′-fluoro-2′-methoxy-7′-(5-pyrimidinyl)spiro[1,3-thiazole-4,9′-xanthen]-2-amine [Example 217] |  |  | IC50 [2, 6]: 1.57 µM
7 | NC1=N[C@@]2(CO1)c1cc(-c3cncc(C#CCO)c3)ccc1Oc1cnc(C3=CCOCC3)cc12 [Example 826, 3-(5-((5S)-2′-amino-3-(3,6-dihydro-2H-pyran-4-yl)spiro[chromeno[2,3-c]pyridine-5,4′-[1,3]oxazol]-7-yl)-3-pyridinyl)-2-propyn-1-ol] |  | 0.002 µM | 
8 | NC1=N[C@@]2(CS1)c1cc(Br)ccc1Oc1cnc(Cl)cc12 [Example 588, (5S)-7-bromo-3-chlorospiro[chromeno[2,3-c]pyridine-5,4′-[1,3]thiazol]-2′-amine] |  |  | IC50 [2, 3]: 10 µM
9 | (4S)-4′-fluoro-2′-methoxy-7′-(5-pyrimidinyl)spiro[1,3-thiazole-4,9′-xanthen]-2-amine [Example 216] |  |  | IC50 [2, 6]: 0.045 µM
10 | NC1=N[C@@]2(CO1)c1cc(-c3cccnc3F)ccc1Oc1c(F)cc(N3CCOCC3)cc12 [Example 139, (S)-4′-fluoro-7′-(2-fluoropyridin-3-yl)-2′-morpholino-5H-spiro[oxazole-4,9′-xanthen]-2-amine] |  | 0.0052 µM | 
11 | NC1=N[C@@]2(CO1)c1cc(-c3cccc(F)n3)ccc1Oc1cnc(-c3ccnc(F)c3)cc12 [Example 632, (5S)-3-(2-fluoro-4-pyridinyl)-7-(6-fluoro-2-pyridinyl)spiro[chromeno[2,3-c]pyridine-5,4′-[1,3]oxazol]-2′-amine] |  |  | IC50 [2, 3]: 0.332 µM
12 | (4S)-7′-bromo-4′-fluoro-2′-methoxyspiro[1,3-thiazole-4,9′-xanthen]-2-amine [Example 218] |  |  | IC50 [2, 6]: 0.128 µM
13 | NC1=N[C@@]2(CO1)c1cc(-c3cccnc3F)ccc1Oc1cnc(N3CC[C@@H](F)C3)cc12 [Example 416, (5S)-7-(2-fluoro-3-pyridinyl)-3-((3R)-3-fluoro-1-pyrrolidinyl)spiro[chromeno[2,3-c]pyridine-5,4′-[1,3]oxazol]-2′-amine] |  |  | IC50 [2, 7]: 0.0049 µM
14 | CC(C)(C)C#Cc1cnc2c(c1)[C@]1(COC(N)=N1)c1cc(-c3cncnc3)c(F)cc1O2 [Example 340, (5S)-3-(3,3-dimethyl-1-butyn-1-yl)-8-fluoro-7-(5-pyrimidinyl)spiro[chromeno[2,3-b]pyridine-5,4′-[1,3]oxazol]-2′-amine] |  |  | IC50 [2, 6]: 0.0843 µM
15 | NC1=N[C@@]2(CO1)c1cc(-c3cccnc3F)ccc1Oc1c2cc(C2=COCCC2)nc1F [Example 807, (5S)-3-(3,4-dihydro-2H-pyran-5-yl)-1-fluoro-7-(2-fluoro-3-pyridinyl)spiro[chromeno[2,3-c]pyridine-5,4′-[1,3]oxazol]-2′-amine] |  | 3.06 µM | 
16 | NC1=N[C@@]2(CO1)c1cc(-c3cccnc3F)ccc1Oc1cnc(N3CC[C@H](F)C3)cc12 [Example 133, (S)-7-(2-fluoropyridin-3-yl)-3-((S)-3-fluoropyrrolidin-1-yl)-5′H-spiro[chromeno[2,3-c]pyridine-5,4′-oxazol]-2′-amine] |  |  | IC50 [2, 7]: 0.0096 µM

Now from value to compound, other results behind:

Row | IC50 [1] | IC50 [2, 5] | Compound | further results
17 | 0.3 nM |  | N#Cc1cccc(-c2ccc3c(c2)[C@@]2(COC(N)=N2)c2cc(N4CCC(F)(F)CC4)nc(F)c2O3)c1 [Example 923, 3-((5S)-2′-amino-3-(4,4-difluoro-1-piperidinyl)-1-fluorospiro[chromeno[2,3-c]pyridine-5,4′-[1,3]oxazol]-7-yl)benzonitrile] | IC50 [2, 3]: 0.032 µM
18 | 183 nM |  | COc1ncc(-c2ccc3c(c2)[C@@]2(COC(N)=N2)c2cc(/C=C/C(C)(C)C)ncc2O3)cn1 [Example 406, (5S)-3-((1E)-3,3-dimethyl-1-buten-1-yl)-7-(2-methoxy-5-pyrimidinyl)spiro[chromeno[2,3-c]pyridine-5,4′-[1,3]oxazol]-2′-amine] | IC50 [2, 3]: 0.712 µM
19 | 1.1 nM |  | COC(C)(C)C#Cc1cnc2c(c1)[C@]1(COC(N)=N1)c1cc(-c3cncnc3)c(F)cc1O2 [Example 643, (5S)-8-fluoro-3-(3-methoxy-3-methyl-1-butyn-1-yl)-7-(5-pyrimidinyl)spiro[chromeno[2,3-b]pyridine-5,4′-[1,3]oxazol]-2′-amine] | IC50 [2, 3]: 0.015 µM
20 | 1.7 nM |  | CC1(C)C[C@@H](c2cnc3c(c2)[C@]2(COC(N)=N2)c2cc(-c4cccc(Cl)c4)ccc2O3)CCO1 [Example 465, (5S)-7-(3-chlorophenyl)-3-((4S)-2,2-dimethyltetrahydro-2H-pyran-4-yl)spiro[chromeno[2,3-b]pyridine-5,4′-[1,3]oxazol]-2′-amine] | IC50 [2, 3]: 0.0111 µM
21 |  | 0.0032 µM | NC1=N[C@@]2(CO1)c1cc(-c3cccnc3F)ccc1Oc1c(F)cc(C3=CCCOC3)cc12 [Example 129, (S)-2′-(5,6-dihydro-2H-pyran-3-yl)-4′-fluoro-7′-(2-fluoropyridin-3-yl)-5H-spiro[oxazole-4,9′-xanthen]-2-amine] | 
22 |  | 1.18 µM | NC1=N[C@]2(CS1)c1cc(-c3cccnc3F)ccc1Oc1c2cc(-c2ccnc(F)c2)nc1F [Example 997, (5R)-1-fluoro-7-(2-fluoro-3-pyridinyl)-3-(2-fluoro-4-pyridinyl)spiro[chromeno[2,3-c]pyridine-5,4′-[1,3]thiazol]-2′-amine] | 
23 |  | 0.0069 µM | NC1=N[C@@]2(CO1)c1cc(-c3cccnc3F)ccc1Oc1c(F)cc(N3CC[C@H](F)C3)cc12 [Example 280, (S)-4′-fluoro-7′-(2-fluoropyridin-3-yl)-2′-((S)-3-fluoropyrrolidin-1-yl)-5H-spiro[oxazole-4,9′-xanthen]-2-amine] | 
24 |  | 0.0085 µM | NC1=N[C@@]2(CO1)c1cc(-c3cccnc3F)ccc1Oc1c(F)cc(N3CC[C@@H](F)C3)cc12 [Example 279, (4S)-4′-fluoro-7′-(2-fluoro-3-pyridinyl)-2′-((3R)-3-fluoro-1-pyrrolidinyl)spiro[1,3-oxazole-4,9′-xanthen]-2-amine] | 
